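1) Cells in 96-well plates. 2) Compound, 48 h, 5 concentrations. 3) Linear interpolation between surrounding doses. 4) Unreached endpoint = highest concentration. GI50 is the concentration that inhibits growth by half. TGI is the concentration that stops growth completely.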
Columns and labels:
Assay in all cases: growth of human tumour cells (NCI), 48 h
CAKI-1 renal = test system: CAKI-1 renal
EKVX NSCLC = test system: EKVX NSCLC
HCT-15 colon = test system: HCT-15 colon
HOP-62 NSCLC = test system: HOP-62 NSCLC
OVCAR-4 ovarian = test system: OVCAR-4 ovarian
SF-268 CNS = test system: SF-268 CNS
SF-539 CNS = test system: SF-539 CNS
SK-MEL-2 melanoma = test system: SK-MEL-2 melanoma
A498 renal = test system: A498 renal
MALME-3M melanoma = test system: MALME-3M melanoma

Structure (SMILES) | GI50 (CAKI-1 renal) | TGI (CAKI-1 renal) | GI50 (EKVX NSCLC) | TGI (EKVX NSCLC) | GI50 (HCT-15 colon) | TGI (HCT-15 colon) | GI50 (HOP-62 NSCLC) | TGI (HOP-62 NSCLC) | GI50 (OVCAR-4 ovarian) | TGI (OVCAR-4 ovarian) | GI50 (SF-268 CNS) | TGI (SF-268 CNS) | GI50 (SF-539 CNS) | TGI (SF-539 CNS) | GI50 (SK-MEL-2 melanoma) | TGI (SK-MEL-2 melanoma) | GI50 (A498 renal) | TGI (A498 renal) | GI50 (MALME-3M melanoma) | TGI (MALME-3M melanoma)
O=S(=O)(NCC1CCC(CNc2ccc(Cl)cc2)CC1)c1ccc(-c2ccccc2)cc1 (stereo not drawn) | 25.6 µM | > 50 µM | 25.7 µM | > 50 µM | > 50 µM | > 50 µM | > 50 µM | > 50 µM | > 50 µM | > 50 µM | > 50 µM | > 50 µM | > 50 µM | > 50 µM | > 50 µM | > 50 µM |  |  |  | 
Cc1cc(C)c(C[N+](C)(C)C)c(C)c1C | 0.281 µM | > 26 µM |  |  | 0.313 µM | 19.4 µM | 0.323 µM | 7.59 µM | 0.762 µM | > 27.1 µM | 0.364 µM | 10 µM | 0.292 µM | 4.86 µM | 0.654 µM | 5.04 µM | 0.729 µM | 8.66 µM | 0.594 µM | 32.2 µM
CN1NC2(CCCCC2)ON=C1c1ccccc1 |  | > 100 µM |  | > 100 µM |  | > 100 µM |  | > 100 µM |  | > 100 µM |  | > 100 µM |  | > 100 µM |  |  |  | > 100 µM |  | > 100 µM
ClC(Cl)c1nc(-c2cccnc2)n2nc(-c3ccccc3)cc2n1 | 1.73 µM | 5.51 µM | 2.32 µM | 6.21 µM | 0.472 µM | 3.44 µM | 1.69 µM | 6.44 µM | 2.03 µM | 5.78 µM | 2.28 µM | 5.76 µM |  |  |  |  | 0.0299 µM | 2.17 µM | 1.59 µM | 3.25 µM
COc1cc2c3c(n(CCCNCCN)c(=O)c2cc1OC)-c1cc2c(cc1C3=O)OCO2 | 0.836 µM | 5.87 µM | 4.58 µM | 17.2 µM |  | > 40.3 µM | 0.189 µM | 1.73 µM | 0.475 µM | 2.47 µM | 0.776 µM | > 31.9 µM | 0.39 µM | 2.22 µM | 2.63 µM | 8.67 µM |  |  | 0.654 µM | 7.74 µM
N=c1nnc(=O)c2c(s1)-n1ncc(C(=O)O)c1NN2 |  | > 100 µM |  | > 100 µM |  |  |  | > 100 µM |  | > 100 µM |  | > 100 µM |  | > 100 µM |  |  |  |  |  | > 100 µM
NNc1cccc(/C=C/c2ccccc2)cc1=O | 2.6 µM | 8.17 µM | 3.27 µM | 35.8 µM | 3.8 µM | > 100 µM | 9.3 µM | > 100 µM | 4.66 µM | > 100 µM | 4.27 µM | > 100 µM | 23 µM | > 100 µM | 70.1 µM | > 100 µM | 13 µM | 55.7 µM |  | 
C=C=C(CC)C(C(=O)OC)N(CC)CC (stereo not drawn) |  | > 100 µM |  | > 100 µM |  |  |  | > 100 µM |  | > 100 µM |  | > 100 µM |  | > 100 µM |  |  |  | > 100 µM |  | > 100 µM
CC(=O)O[C@H]1CC[C@@]2(C)C(=CC[C@H]3C4=CC=C(C(C)=O)[C@@]4(C)CCC32)C1 (stereo partly drawn) |  | > 100 µM |  | > 100 µM |  | > 100 µM |  | > 100 µM |  | > 100 µM |  | > 100 µM |  | > 100 µM |  |  |  | > 100 µM |  | > 100 µM

— PubChem BioAssay (NCI)
